{
  "source": "patent US20220380385A1",
  "about": "“PYRIMIDINE FIVE-MEMBERED NITROGEN HETEROCYCLIC DERIVATIVE, PREPARATION METHOD THEREOF AND PHARMACEUTICAL USE THEREOF” (TUOJIE BIOTECH(SHANGHAI) CO., LTD., priority 2019, published 2022)",
  "key": {"CYP1A2": {"molecular_target": "T1, CYP1A2 (Homo sapiens, UniProt P05177)", "T1 construct": "Mixed human liver microsomes from 150 donors; tissue Corning 452117; host or cells: pooled human liver microsomes (150 donors)", "T1 sequence (P05177 1-516)": "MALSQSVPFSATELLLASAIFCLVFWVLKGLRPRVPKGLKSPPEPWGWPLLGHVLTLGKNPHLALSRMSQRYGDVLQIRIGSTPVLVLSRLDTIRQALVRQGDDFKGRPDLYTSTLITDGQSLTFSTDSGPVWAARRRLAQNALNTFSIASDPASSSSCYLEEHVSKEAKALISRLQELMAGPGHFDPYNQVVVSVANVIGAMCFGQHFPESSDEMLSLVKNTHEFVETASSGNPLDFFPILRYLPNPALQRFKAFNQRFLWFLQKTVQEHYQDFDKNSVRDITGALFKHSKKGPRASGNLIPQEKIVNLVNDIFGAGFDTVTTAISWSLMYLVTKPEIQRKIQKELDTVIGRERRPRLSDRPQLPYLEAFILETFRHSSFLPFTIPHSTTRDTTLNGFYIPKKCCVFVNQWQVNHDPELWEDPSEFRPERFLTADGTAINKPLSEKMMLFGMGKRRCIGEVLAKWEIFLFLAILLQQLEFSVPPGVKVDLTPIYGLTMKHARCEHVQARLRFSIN", "experiment": "CYP inhibition in mixed human liver microsomes, CYP1A2 (phenacetin)", "assay_type": "in vitro ADME", "procedure": "(§1) Mixed human liver microsomes from 150 donors (purchased from Corning, catalog number 452117) were used to evaluate the representative substrate metabolic responses of the five main human CYP subtypes (CYP1A2, CYP2C9, CYP2C19, CYP2D6 and CYP3A4/5). The influence of different concentrations of test compounds on the metabolic responses of phenacetin (CYP1A2), diclofenac sodium (CYP2C9), S-mephenytoin (CYP2C19), bufurolol hydrochloride (2D6) and midazolam (CYP3A4/5) was determined by liquid chromatography tandem mass spectrometry (LC/MS/MS).\n(§2) 200 μL of the reaction system (100 mmol/L phosphate buffer, pH 7.4, containing 0.3% DMSO, 0.6% acetonitrile and 0.1% methanol by volume respectively) with 30 µM phenacetin, 10 μM diclofenac sodium, 35 μM S-mephenytoin, 5 μM bufurolol hydrochloride, 3 μM midazolam, 1 mM NADPH, test compound (at a concentration of 0.1, 0.3, 1, 3, 10 and 30 μmol/L respectively) or positive compound or blank control and mixed human liver microsomes (0.2 mg/mL) was incubated at 37° C. for 5 minutes. […]\n(§3) The peak area was calculated based on the chromatograms. The residual activity ratio (%) was calculated using the following equation: […]\n(§4) The CYP median inhibitory concentration (IC50) was calculated by Excel XLfit 5.3.1.3."}, "CYP3A4/5": {"system": "CYP3A4/5", "experiment": "CYP inhibition in mixed human liver microsomes, CYP3A4/5 (midazolam)", "assay_type": "in vitro ADME", "details": "pH 7.4, mixed human liver microsomes 0.2 mg/mL, read-out: Median inhibitory concentration (IC50) CYP 3A4/5", "procedure": "as §1, §2, §3, §4"}, "CYP2D6": {"molecular_target": "T2, CYP2D6 (Homo sapiens, UniProt P10635)", "T2 construct": "Mixed human liver microsomes from 150 donors; tissue Corning 452117; host or cells: pooled human liver microsomes (150 donors)", "T2 sequence (P10635 whole entry)": "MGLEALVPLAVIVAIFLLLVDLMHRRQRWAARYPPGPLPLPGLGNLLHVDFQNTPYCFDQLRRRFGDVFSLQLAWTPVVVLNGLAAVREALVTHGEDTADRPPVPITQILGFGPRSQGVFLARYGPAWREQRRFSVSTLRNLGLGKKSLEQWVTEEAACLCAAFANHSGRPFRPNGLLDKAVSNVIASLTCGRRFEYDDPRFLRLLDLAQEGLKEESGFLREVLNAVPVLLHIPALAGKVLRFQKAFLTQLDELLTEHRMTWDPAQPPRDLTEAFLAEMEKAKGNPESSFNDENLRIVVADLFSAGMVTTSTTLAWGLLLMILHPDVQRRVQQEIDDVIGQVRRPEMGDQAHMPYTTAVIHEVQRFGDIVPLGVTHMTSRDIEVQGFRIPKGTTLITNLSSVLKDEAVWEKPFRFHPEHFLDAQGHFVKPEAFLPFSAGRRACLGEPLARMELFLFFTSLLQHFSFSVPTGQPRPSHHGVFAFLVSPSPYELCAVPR", "experiment": "CYP inhibition in mixed human liver microsomes, CYP2D6 (bufurolol hydrochloride)", "assay_type": "in vitro ADME", "procedure": "as §1, §2, §3, §4"}, "[1]": {"experiment": "In vivo pharmacokinetics in rats (gavage)", "design": "species or system SD rats", "details": "original drug, rat, 5 mpk", "procedure": "Rats were used as the test animals. The plasma drug concentration at different times after the rats were given the compounds of the invention by gavage was determined by using the LC/MS/MS method. The in vivo pharmacokinetic behavior of the compounds of the present invention in rats was studied, and pharmacokinetic characteristics thereof were evaluated.\nTest animals: 3 healthy, 6-8 weeks old male SD rats in each group\nA certain amount of drug was weighed, and 0.5% by mass of hypromellose, 0.1% by volume of Tween 80 and 99.4% by volume of water were added thereto to formulate a white suspension at 1 mg/mL.\nSD rats were fasted overnight, then the drug was administered by gavage. The dosage of reference 1 was 7.5 mg/kg, and the dosage of Example 1 was 5 mg/kg.\nRats were administered the compounds of the present invention by gavage. At 0.25, 0.5, 1, 2, 4, 8 and 24 hours after administration, 0.2 mL of blood was collected from the jugular vein and placed in a test tube containing EDTA-K2. The tube was centrifuged at 4° C., 4000 rpm for 5 minutes to separate the plasma, which was stored at −75° C.\nDetermination of the content of the test compounds in rat plasma after administration of different concentrations of drugs by gavage: 50 μL of rat plasma at each time after administration was taken, and 200 μL of a solution of the internal standard dexamethasone in acetonitrile (50 ng/mL). The mixture was mixed by vortexing for 30 seconds, centrifuged at 4° C., 4700 rpm for 15 minutes. The supernatant of the plasma samples were collected and diluted three times with water, and 2.0 μL was taken for the LC/MS/MS analysis."}, "CYP2C19": {"molecular_target": "T3, CYP2C19 (Homo sapiens, UniProt P33261)", "T3 construct": "Mixed human liver microsomes from 150 donors; tissue Corning 452117; host or cells: pooled human liver microsomes (150 donors)", "T3 sequence (P33261 whole entry)": "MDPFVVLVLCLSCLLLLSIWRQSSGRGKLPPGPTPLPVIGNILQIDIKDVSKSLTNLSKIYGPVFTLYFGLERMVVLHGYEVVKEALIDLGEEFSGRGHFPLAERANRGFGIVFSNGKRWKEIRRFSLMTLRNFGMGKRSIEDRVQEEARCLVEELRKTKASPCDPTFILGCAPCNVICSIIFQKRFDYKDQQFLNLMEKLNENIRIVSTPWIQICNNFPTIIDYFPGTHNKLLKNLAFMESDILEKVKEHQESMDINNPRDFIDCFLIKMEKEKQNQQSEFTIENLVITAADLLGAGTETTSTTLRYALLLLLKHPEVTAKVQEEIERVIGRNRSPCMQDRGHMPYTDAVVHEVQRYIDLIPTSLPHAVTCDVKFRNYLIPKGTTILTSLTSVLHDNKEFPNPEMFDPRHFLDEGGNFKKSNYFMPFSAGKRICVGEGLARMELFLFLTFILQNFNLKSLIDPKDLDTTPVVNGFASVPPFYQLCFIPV", "experiment": "CYP inhibition in mixed human liver microsomes, CYP2C19 (S-mephenytoin)", "assay_type": "in vitro ADME", "procedure": "as §1, §2, §3, §4"}},
  "data": [
    {"compound": "[2H]C([2H])([2H])Nc1nccc(Sc2c(C)nc(N3CCC4(CC3)Cc3ncccc3[C@H]4N)n3ccnc23)c1Cl", "note": "[Example 3, (S)-1′-(8-((3-Chloro-2-((methyl-d3)amino)pyridin-4-yl)thio)-7-methylimidazo[1,2-c]pyrimidin-5-yl)-5,7-dihydrospiro[cyclopenta[b]pyridine-6,4′-piperidin]-5-amine]", "values": [
      {"measurement": "IC50", "setting": "CYP1A2", "value": 14.7, "unit": "µM"},
      {"measurement": "IC50 at 5 min", "setting": "CYP3A4/5", "value": "> 20", "unit": "µM"},
      {"measurement": "IC50", "setting": "CYP2D6", "value": "> 20", "unit": "µM"},
      {"measurement": "AUC", "setting": "[1]; male, SD, plasma, po, 5 mg/kg, read-out: Area under curve AUC", "value": 3820, "unit": "ng·h/mL"},
      {"measurement": "Cmax", "setting": "[1]; male, SD, plasma, po, 5 mg/kg, read-out: Maximum blood conc. Cmax", "value": 445, "unit": "ng/mL"},
      {"measurement": "Area under curve of unit dose AUC/D", "setting": "[1]", "value": 764, "unit": "ng*h/mL per mg/kg"},
      {"measurement": "IC50", "setting": "CYP2C19", "value": "> 20", "unit": "µM"}
    ]}
  ]
}
